Results reported in patent US8722849B2, “Polypeptides” (Novo Nordisk A/S, priority 2011, dated 2014).
Values after ≈ are worked out from the molar mass of the structure shown. Read-outs that look alike come from different tables or passages of the source. Starred links: 1 amine or outer side, 2 acyl side, 3 side chain; linkers in the order of their positions; H or OH if unused. Positions of bridges follow the written chain, without caps; N, C: chain ends. Residues, ends and D or L forms follow the SMILES beside them. Groups on a side chain read outwards from the residue. *: point of attachment. C20 diacid = O=C(O)CCCCCCCCCCCCCCCCCCC(=O)*; γGlu = O=C(O)[C@H](CCC(=O)[*:2])N[*:1]; AEEA = NCCOCCOCC(=O)O

Test: Assay (IV) determination of solubility
Format: physicochemical
Description: ASSAY (IV)—Determination of Solubility
The polypeptide was dissolved in water at ˜500 nmol/ml and mixed 1:1 with a series of buffers (100 mM glycylglycine pH 3.0, 100 mM glycylglycine pH 4.0, 100 mM glycylglycine pH 5.0, 100 mM bistrispropane pH 6.0, 100 mM bistrispropane pH 6.5, 100 mM bistrispropane pH 7.0, 100 mM bistrispropane pH 7.5, 100 mM bistrispropane pH 8.0). After 18 hours at room temperature the samples were centrifuged and the polypeptide concentration determined by HPLC.

[1] = pH 3, pH 3.0, read-out: Solubility pH 3.0
[2] = pH 4, pH 4.0, 18 hours at room temperature, Table 2, read-out: Solubility pH 4.0
[3] = pH 4, pH 4.0, read-out: Solubility pH 4.0
[4] = pH 5, pH 5.0, read-out: Solubility pH 5.0
[5] = pH 6, pH 6.0, read-out: Solubility pH 6.0
[6] = pH 6.5, pH 6.5, read-out: Solubility pH 6.5
[7] = pH 7, pH 7.0, read-out: Solubility pH 7.0
[8] = pH 7.5, pH 7.5, read-out: Solubility pH 7.5
[9] = pH 8, pH 8.0, read-out: Solubility pH 8.0

| solubility [1] [µM] | solubility [2] [µM] | solubility [3] [µM] | solubility [4] [µM] | solubility [5] [µM] | solubility [6] [µM] | solubility [7] [µM] | solubility [8] [µM] | solubility [9] [µM] | Structure (SMILES) |
| --- | --- | --- | --- | --- | --- | --- | --- | --- | --- |
| > 200 | > 200 | > 200 | 104 (≈ 496 µg/mL) | 2 (≈ 9.53 µg/mL) | 1 (≈ 4.77 µg/mL) | 1 (≈ 4.77 µg/mL) | 1 (≈ 4.77 µg/mL) | – | CC[C@H](C)[C@H](NC(=O)[C@H](CCCCNC(=O)COCCOCCNC(=O)COCCOCCNC(=O)CC[C@H](NC(=O)CCCCCCCCCCCCCCCCCCC(=O)O)C(=O)O)NC(=O)CNC(=O)[C@H](Cc1ccccc1)NC(=O)[C@H](CC(N)=O)NC(=O)[C@H](CC(N)=O)NC(=O)[C@H](CO)NC(=O)[C@H](CO)NC(=O)[C@H](Cc1c[nH]cn1)NC(=O)[C@H](Cc1c[nH]cn1)NC(=O)[C@H](CC(C)C)NC(=O)[C@H](Cc1ccccc1)NC(=O)[C@H](CC(N)=O)NC(=O)[C@H](C)NC(=O)[C@H](CC(C)C)NC(=O)[C@H](CCCNC(=N)N)NC(=O)[C@H](CCC(N)=O)NC(=O)[C@@H](NC(=O)[C@H](C)NC(=O)[C@@H]1CSSC[C@H](NC(=O)[C@@H](N)CCCCN)C(=O)N[C@@H](CC(N)=O)C(=O)N[C@@H]([C@@H](C)O)C(=O)N[C@@H](C)C(=O)N[C@@H]([C@@H](C)O)C(=O)N1)[C@@H](C)O)C(=O)N[C@@H](CC(C)C)C(=O)N[C@@H](CO)C(=O)N[C@@H](CO)C(=O)N[C@H](C(=O)N[C@@H](CC(N)=O)C(=O)N[C@H](C(=O)NCC(=O)N[C@@H](CO)C(=O)N[C@@H](Cc1c[nH]cn1)C(=O)N[C@H](C(=O)N[C@@H](Cc1ccc(O)cc1)C(N)=O)[C@@H](C)O)C(C)C)[C@@H](C)O [Example 140, N-epsilon25-[2-(2-{2-[2-(2-{2-[(S)-4-Carboxy-4-(19-carboxyheptadecanoylamino)butyrylamino]ethoxy}ethoxy)acetylamino]ethoxy}ethoxy)acetyl]-[His17,Lys25,Ser28,Ser29,His35]-pramlintide] (H-KCNTATCATQRLANFLHHSSNNFGK([AEEA-AEEA-γGlu-C20 diacid])ILSSTNVGSHTY-NH2; disulfide 2-7) |
| > 200 | > 200 | > 200 | 185 (≈ 884 µg/mL) | 118 (≈ 564 µg/mL) | 1 (≈ 4.78 µg/mL) | 1 (≈ 4.78 µg/mL) | 1 (≈ 4.78 µg/mL) | – | CC[C@H](C)[C@H](NC(=O)[C@H](CCCCNC(=O)COCCOCCNC(=O)COCCOCCNC(=O)CC[C@H](NC(=O)CCCCCCCCCCCCCCCCCCC(=O)O)C(=O)O)NC(=O)CNC(=O)[C@H](Cc1ccccc1)NC(=O)[C@H](CC(N)=O)NC(=O)[C@H](CC(N)=O)NC(=O)[C@H](CO)NC(=O)[C@H](CO)NC(=O)[C@H](Cc1c[nH]cn1)NC(=O)[C@H](Cc1c[nH]cn1)NC(=O)[C@H](CC(C)C)NC(=O)[C@H](Cc1ccccc1)NC(=O)[C@H](CCC(=O)O)NC(=O)[C@H](C)NC(=O)[C@H](CC(C)C)NC(=O)[C@H](CCCNC(=N)N)NC(=O)[C@H](CCC(N)=O)NC(=O)[C@@H](NC(=O)[C@H](C)NC(=O)[C@@H]1CSSC[C@H](NC(=O)[C@@H](N)CCCCN)C(=O)N[C@@H](CC(N)=O)C(=O)N[C@@H]([C@@H](C)O)C(=O)N[C@@H](C)C(=O)N[C@@H]([C@@H](C)O)C(=O)N1)[C@@H](C)O)C(=O)N[C@@H](CC(C)C)C(=O)N[C@@H](CO)C(=O)N[C@@H](CO)C(=O)N[C@H](C(=O)N[C@@H](CC(N)=O)C(=O)N[C@H](C(=O)NCC(=O)N[C@@H](CO)C(=O)N[C@@H](Cc1c[nH]cn1)C(=O)N[C@H](C(=O)N[C@@H](Cc1ccc(O)cc1)C(N)=O)[C@@H](C)O)C(C)C)[C@@H](C)O [Example 142, N-epsilon25-[2-(2-{2-[2-(2-{2-[(S)-4-Carboxy-4-(19-carboxyheptadecanoylamino)butyrylamino]ethoxy}ethoxy)acetylamino]ethoxy}ethoxy)acetyl]-[Glu14,His17,Lys25,Ser28,Ser29,His35]-pramlintide] (H-KCNTATCATQRLAEFLHHSSNNFGK([AEEA-AEEA-γGlu-C20 diacid])ILSSTNVGSHTY-NH2; disulfide 2-7) |
| > 200 | > 200 | > 200 | > 200 | > 200 | 105 (≈ 498 µg/mL) | 37 (≈ 175 µg/mL) | 57 (≈ 270 µg/mL) | 117 (≈ 555 µg/mL) | CC[C@H](C)[C@H](NC(=O)[C@@H]1CCCN1C(=O)CNC(=O)[C@H](Cc1ccccc1)NC(=O)[C@H](CC(N)=O)NC(=O)[C@H](CO)NC(=O)[C@H](CO)NC(=O)[C@H](CO)NC(=O)[C@H](Cc1c[nH]cn1)NC(=O)[C@H](Cc1c[nH]cn1)NC(=O)[C@H](CC(C)C)NC(=O)[C@H](Cc1ccccc1)NC(=O)[C@H](CCC(=O)O)NC(=O)[C@H](C)NC(=O)[C@H](CC(C)C)NC(=O)[C@H](CCCNC(=N)N)NC(=O)[C@H](CCC(N)=O)NC(=O)[C@@H](NC(=O)[C@H](C)NC(=O)[C@@H]1CSSC[C@H](NC(=O)[C@H](CCCCN)NC(=O)COCCOCCNC(=O)COCCOCCNC(=O)CC[C@H](NC(=O)CCCCCCCCCCCCCCCCCCC(=O)O)C(=O)O)C(=O)N[C@@H](CC(N)=O)C(=O)N[C@@H]([C@@H](C)O)C(=O)N[C@@H](C)C(=O)N[C@@H]([C@@H](C)O)C(=O)N1)[C@@H](C)O)C(=O)N[C@@H](CC(C)C)C(=O)N1CCC[C@H]1C(=O)N1CCC[C@H]1C(=O)N[C@H](C(=O)N[C@@H](CC(N)=O)C(=O)N[C@H](C(=O)NCC(=O)N[C@@H](CO)C(=O)N[C@@H](Cc1c[nH]cn1)C(=O)N[C@H](C(=O)N[C@@H](Cc1ccc(O)cc1)C(N)=O)[C@@H](C)O)C(C)C)[C@@H](C)O [Example 118, N-alpha-[2-(2-{2-[2-(2-{2-[(S)-4-Carboxy-4-(19-carboxyheptadecanoylamino)butyrylamino]ethoxy}ethoxy)acetylamino]ethoxy}ethoxy)acetyl]-[Glu14,His17,Ser21,His35]-pramlintide] ({C20 diacid-γGlu-AEEA-AEEA}-KCNTATCATQRLAEFLHHSSSNFGPILPPTNVGSHTY-NH2; disulfide 2-7) |
| > 200 | > 200 | > 200 | > 200 | 192 (≈ 923 µg/mL) | 102 (≈ 490 µg/mL) | 13 (≈ 62.5 µg/mL) | 7 (≈ 33.7 µg/mL) | 47 (≈ 226 µg/mL) | CC[C@H](C)[C@H](NC(=O)[C@@H]1CCCN1C(=O)CNC(=O)[C@H](Cc1ccccc1)NC(=O)[C@H](CC(N)=O)NC(=O)[C@H](CCCCNC(=O)COCCOCCNC(=O)COCCOCCNC(=O)CC[C@H](NC(=O)CCCCCCCCCCCCCCCCCCC(=O)O)C(=O)O)NC(=O)[C@H](CO)NC(=O)[C@H](CO)NC(=O)[C@H](CCCNC(=N)N)NC(=O)[C@H](Cc1c[nH]cn1)NC(=O)[C@H](CC(C)C)NC(=O)[C@H](Cc1ccccc1)NC(=O)[C@H](CCC(=O)O)NC(=O)[C@H](C)NC(=O)[C@H](CC(C)C)NC(=O)[C@H](CCCNC(=N)N)NC(=O)[C@H](CCC(N)=O)NC(=O)[C@@H](NC(=O)[C@H](C)NC(=O)[C@@H]1CSSC[C@H](NC(=O)[C@@H](N)CCCNC(=N)N)C(=O)N[C@@H](CC(N)=O)C(=O)N[C@@H]([C@@H](C)O)C(=O)N[C@@H](C)C(=O)N[C@@H]([C@@H](C)O)C(=O)N1)[C@@H](C)O)C(=O)N[C@@H](CC(C)C)C(=O)N1CCC[C@H]1C(=O)N1CCC[C@H]1C(=O)N[C@H](C(=O)N[C@@H](CC(N)=O)C(=O)N[C@H](C(=O)NCC(=O)N[C@@H](CO)C(=O)N[C@@H](CC(N)=O)C(=O)N[C@H](C(=O)N[C@@H](Cc1ccc(O)cc1)C(N)=O)[C@@H](C)O)C(C)C)[C@@H](C)O [Example 14, N-epsilon21-[2-(2-{2-[2-(2-{2-[(S)-4-Carboxy-4-(19-carboxyheptadecanoylamino)butyrylamino]ethoxy}ethoxy)acetylamino]ethoxy}ethoxy)acetyl]-[Arg1,Glu14,His17,Arg18,Lys21]-pramlintide] (H-RCNTATCATQRLAEFLHRSSK([AEEA-AEEA-γGlu-C20 diacid])NFGPILPPTNVGSNTY-NH2; disulfide 2-7) |
